US12162858B2, “Quinoline derivatives as inhibitors of AXL/MER RTK and CSF1R” (QURIENT CO., LTD., priority 2018, dated 2024)
Where two headings read alike, the source gives them in different places.

Columns and labels:
Mer = molecular target: T1, Mer (Homo sapiens, UniProt Q12866); assay: LanthaScreen Eu kinase binding assay for Mer
T1 construct: purchased Life Technologies
T1 sequence (Q12866 21-999): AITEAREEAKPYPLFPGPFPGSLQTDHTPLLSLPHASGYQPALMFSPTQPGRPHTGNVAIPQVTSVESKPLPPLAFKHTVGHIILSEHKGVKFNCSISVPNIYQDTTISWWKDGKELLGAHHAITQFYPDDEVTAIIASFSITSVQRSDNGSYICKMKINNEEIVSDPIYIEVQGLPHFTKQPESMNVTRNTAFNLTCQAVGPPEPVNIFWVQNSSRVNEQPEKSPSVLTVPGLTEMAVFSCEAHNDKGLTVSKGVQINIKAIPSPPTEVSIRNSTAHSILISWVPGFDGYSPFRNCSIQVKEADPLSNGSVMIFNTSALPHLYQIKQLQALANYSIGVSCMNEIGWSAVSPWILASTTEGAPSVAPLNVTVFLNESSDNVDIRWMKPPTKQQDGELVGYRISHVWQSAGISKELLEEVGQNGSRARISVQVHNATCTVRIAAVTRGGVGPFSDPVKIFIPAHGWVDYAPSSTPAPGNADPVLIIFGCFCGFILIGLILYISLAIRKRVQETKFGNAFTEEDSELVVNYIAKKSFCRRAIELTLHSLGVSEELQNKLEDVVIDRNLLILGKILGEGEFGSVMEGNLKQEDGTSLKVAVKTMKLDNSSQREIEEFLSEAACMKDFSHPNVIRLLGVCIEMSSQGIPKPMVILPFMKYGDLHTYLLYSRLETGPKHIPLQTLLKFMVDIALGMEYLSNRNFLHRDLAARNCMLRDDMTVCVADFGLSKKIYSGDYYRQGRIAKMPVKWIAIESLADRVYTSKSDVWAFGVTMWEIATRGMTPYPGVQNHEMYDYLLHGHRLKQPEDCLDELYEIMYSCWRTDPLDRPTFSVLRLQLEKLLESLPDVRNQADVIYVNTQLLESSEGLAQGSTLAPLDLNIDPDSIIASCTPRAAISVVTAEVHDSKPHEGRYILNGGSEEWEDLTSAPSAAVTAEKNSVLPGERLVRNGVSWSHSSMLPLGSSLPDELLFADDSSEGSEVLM
Method: LanthaScreen® Eu Kinase Binding assays were conducted at Life Technologies using the manufacturer's specifications for each kinase indicated.
Briefly, the principle behind this assay is based upon the binding and displacement of an Alexa Fluor 647-labeled tracer to the kinase of interest. Binding of the tracer to the kinase is detected using an EU-labeled anti-tag antibody. Simultaneous binding of both the tracer and antibody to the kinase gives rise to a FRET-signal. Binding of an inhibitor to the kinase competes for binding with the tracer, resulting in a loss of FRET-signal.
A given compound was diluted in DMSO to make a stock compound solution. The stock compound solution was serially diluted over eight steps in DMSO. Each diluted compound solution in DMSO was diluted in kinase buffer. Afterwards four kinds of working solution were prepared. First, Tracer-Working solution consists of Tracer 236 and Kinase Buffer. Second, Axl, Mer, Tyro3 or Met/anti-GST-AB-Working solution contained one of the kinases Axl, and Mer or anti-GST-AB (=anti glutathione-S-transferase antibody) in Kinase Buffer. Third, anti-GST-AB-Working solution was made with anti-GST-AB and Kinase Buffer. Last, in the DMSO-Working solution DMSO was added to Kinase Buffer to a final concentration to 3%. Each of the four kinds of working solutions were separately added to the assay plate and then incubated for 1 h at room temperature. After incubation, the assay plate was measured with respect to the FRET-Signal with the EnVision (Perkin Elmer) using the program LanthaHTRF-Assay. Data evaluation was done in the Quattro Workflow software. Kd (the equilibrium dissociation constant) values were calculated relative to vehicle (DMSO) control wells.

CSF1R = CSF1R (Homo sapiens, UniProt P07333); assay: KINOMEscan competition binding assay for CSF1R; parameters: DNA tag for qPCR (not a peptide); host or cells: E. coli/T7 phage or HEK-293; conditions: for Kd: read-out: CSF1R kinase binding activity (Kd)
Sequence of CSF1R (P07333 20-972): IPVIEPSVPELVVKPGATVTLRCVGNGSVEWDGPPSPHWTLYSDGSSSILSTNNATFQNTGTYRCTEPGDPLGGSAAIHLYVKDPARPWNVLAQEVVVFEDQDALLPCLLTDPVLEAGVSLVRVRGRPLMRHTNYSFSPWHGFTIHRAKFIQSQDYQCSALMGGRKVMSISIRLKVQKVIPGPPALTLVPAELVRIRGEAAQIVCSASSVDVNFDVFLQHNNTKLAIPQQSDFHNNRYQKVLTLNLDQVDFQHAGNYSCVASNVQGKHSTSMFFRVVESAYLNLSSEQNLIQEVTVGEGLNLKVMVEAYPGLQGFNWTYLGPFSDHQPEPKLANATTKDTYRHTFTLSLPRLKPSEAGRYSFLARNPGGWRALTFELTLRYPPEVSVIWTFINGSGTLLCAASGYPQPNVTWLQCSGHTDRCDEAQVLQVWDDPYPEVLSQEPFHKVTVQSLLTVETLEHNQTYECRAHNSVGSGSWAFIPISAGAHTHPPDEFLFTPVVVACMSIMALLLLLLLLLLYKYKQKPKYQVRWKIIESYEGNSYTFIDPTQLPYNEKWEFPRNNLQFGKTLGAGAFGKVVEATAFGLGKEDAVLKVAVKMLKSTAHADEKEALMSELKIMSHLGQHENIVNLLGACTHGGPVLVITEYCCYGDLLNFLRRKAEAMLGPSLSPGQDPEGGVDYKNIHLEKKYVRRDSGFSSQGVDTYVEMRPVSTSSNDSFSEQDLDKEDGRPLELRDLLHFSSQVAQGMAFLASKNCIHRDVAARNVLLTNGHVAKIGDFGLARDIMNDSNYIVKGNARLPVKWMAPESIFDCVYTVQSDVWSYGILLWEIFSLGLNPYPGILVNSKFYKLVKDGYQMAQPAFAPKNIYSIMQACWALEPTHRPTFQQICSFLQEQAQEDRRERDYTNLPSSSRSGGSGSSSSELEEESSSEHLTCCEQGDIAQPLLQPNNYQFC
Method: KINOMEscan™ is based on a competition binding assay that quantitatively measures the ability of a compound to compete with an immobilized, active-site directed ligand. The assay is performed by combining three components: DNA-tagged kinase; immobilized ligand; and a test compound. The ability of the test compound to compete with the immobilized ligand is measured via quantitative PCR of the DNA tag.
E. coli were grown to log-phase and infected with T7 phage and incubated with shaking at 32° C. until lysis. The lysates were centrifuged and filtered to remove cell debris. The remaining kinases were produced in HEK-293 cells and subsequently tagged with DNA for qPCR detection. Streptavidin-coated magnetic beads were treated with biotinylated small molecule ligands for 30 minutes at room temperature to generate affinity resins for kinase assays. The liganded beads were blocked with excess biotin and washed with blocking buffer (SeaBlock (Pierce), 1% BSA, 0.05% Tween 20, 1 mM DTT) to remove unbound ligand and to reduce non-specific binding. Binding reactions were assembled by combining kinases, liganded affinity beads, and test compounds in 1× binding buffer (20% SeaBlock, 0.17×PBS, 0.05% Tween 20, 6 mM DTT). Test compounds were prepared as 111× stocks in 100% DMSO. Kds were determined using an 11-point 3-fold compound dilution series with three DMSO control points. All compounds for Kd measurements are distributed by acoustic transfer (non-contact dispensing) in 100% DMSO. The compounds were then diluted directly into the assays such that the final concentration of DMSO was 0.9%. In case of % inhibition, test compounds were prepared as 40× stocks in 100% DMSO and directly diluted into the assay. All reactions performed in polypropylene 384-well plate. Each was a final volume of 0.02 ml. The assay plates were incubated at room temperature with shaking for 1 hour and the affinity beads were washed with wash buffer (1×PBS, 0.05% Tween 20). The beads were then re-suspended in elution buffer (1×PBS, 0.05% Tween 20, 0.5 μM non-biotinylated affinity ligand) and incubated at room temperature with shaking for 30 minutes. The kinase concentration in the eluates was measured by qPCR.
The CSF1R kinase binding activity results are shown in tables 1 (Kd) and 2 (percent inhibition at a concentration of 0.1 uM of compound to be tested).
Binding constants (Kds) were calculated with a standard dose-response curve using the Hill equation: […]
The Hill Slope was set to −1.
Curves were fitted using a non-linear least square fit with the Levenberg-Marquardt algorithm.
Binding % inhibition were calculated with as below:
[formula] • negative control=DMSO (100% Ctrl) • positive control=control compound (0% Ctrl)

[1] = read-out: Mer kinase binding activity (Kd)
[2] = read-out: CSF1R kinase binding activity, Percent (%) inhibition
[3] = read-out: CSF1R kinase binding activity, Range

Compound	Kd (Mer; [1]) [nM]	inhibition at 0.1 µM (CSF1R; [2]) [%]	inhibition at 0.1 µM (CSF1R; [3]) [%]	Kd (CSF1R) [nM]	Kd (Mer; comparison of compounds of present invention (**) vs compounds of WO2016/166250 (*), read-out: Binding activity Mer (Kd)) [nM]
CCn1cc(OCC2CCC2)c(C(=O)Nc2ccc(Oc3ccnc4cc(OC)c(OC)cc34)cn2)n1 [Compound 8]	< 100	94	≥ 80	< 100	–
COc1cc2nccc(Oc3ccc(NC(=O)c4nn(C5CCOC5)cc4OCC(F)(F)F)cn3)c2cc1OC (stereo not shown) [Compound 138]	< 100	9	< 50	–	–
COc1cc2nccc(Oc3ccc(NC(=O)c4nn(CCN(C)C)cc4OCC(F)(F)F)nc3)c2cc1OC [Compound 9]	< 100	92	≥ 80	< 100	–
CCCn1cc(OCC(F)(F)F)c(C(=O)Nc2ccc(Oc3ccnc4cc(OC)c(OC)cc34)c(C(F)(F)F)c2)n1 [Compound 114]	< 100	27	< 50	–	–
COCCOc1cn(CC(C)O)nc1C(=O)Nc1ccc(Oc2ccnc3cc(OC)c(OC)cc23)cn1 (stereo not shown) [Compound 150]	< 100	74	50 to 80	–	–
COc1cc2nccc(Oc3ccc(NC(=O)c4n[nH]cc4OCC(F)(F)F)nc3)c2cc1OC [Compound 16]	< 100	99	≥ 80	–	12
CCCn1cc(OCC(F)(F)F)c(C(=O)Nc2ccc(Oc3ccnc4cc(OC)c(OC)cc34)cn2)n1 [Compound 7]	< 100	97	≥ 80	< 100	–
CNCCn1cc(OCC(F)(F)F)c(C(=O)Nc2ccc(Oc3ccnc4cc(OC)c(OC)cc34)nc2)n1 [Compound 137]	≥ 500	6	< 50	–	–
COc1cc2nccc(Oc3ccc(NC(=O)c4nn(CC(C)O)cc4OCC4CCC4)nc3)c2cc1OC (stereo not shown) [Compound 163]	< 100	93	≥ 80	–	–
COc1cc2nccc(Oc3ccc(NC(=O)c4nn(C5CCOC5)cc4OCC(F)(F)F)nn3)c2cc1OC (stereo not shown) [Compound 128]	< 100	94	≥ 80	–	–
COc1cc2nccc(Oc3ccc(NC(=O)c4nn(C5CCN(C)C5)cc4OCC(F)(F)F)nn3)c2cc1OC (stereo not shown) [Compound 157]	100 to 500	81	≥ 80	–	–
COc1cc2nccc(Oc3ccc(NC(=O)c4nn(CCOC5CC5)cc4OCC(F)(F)F)nc3)c2cc1OC [Compound 153]	< 100	95	≥ 80	–	–
COc1cc2nccc(Oc3ccc(NC(=O)c4nn(CCN)cc4OCC(F)(F)F)cn3)c2cc1OC [Compound 135]	≥ 500	4	< 50	–	–
CNCCn1cc(OCC(F)(F)F)c(C(=O)Nc2ccc(Oc3ccnc4cc(OC)c(OC)cc34)cc2)n1 [Compound 119]	100 to 500	9	< 50	–	–
COc1cc2nccc(Oc3ccc(NC(=O)c4nn(C5CC5)cc4NCCC(F)(F)F)nn3)c2cc1OC [Compound 146]	< 100	43	< 50	–	–
COc1cc2nccc(Oc3ccc(NC(=O)c4nn(C5CC5)cc4OC(C)C)nn3)c2cc1OC [Compound 147]	< 100	85	≥ 80	–	–

The remaining lines, values ahead:

Kd (Mer; [1]) [nM]	inhibition at 0.1 µM (CSF1R; [2]) [%]	inhibition at 0.1 µM (CSF1R; [3]) [%]	Kd (CSF1R) [nM]	Kd (Mer; comparison of compounds of present invention (**) vs compounds of WO2016/166250 (*), read-out: Binding activity Mer (Kd)) [nM]	Compound
100 to 500	38	< 50	–	–	CCCn1cc(OCCNC)c(C(=O)Nc2ccc(Oc3ccnc4cc(OC)c(OC)cc34)cn2)n1 [Compound 140]
≥ 500	16	< 50	–	–	COc1cc2nccc(Oc3ccc(NC(=O)c4nn(C5CCNC5)cc4OCC(F)(F)F)cn3)c2cc1OC (stereo not shown) [Compound 132]
< 100	98	≥ 80	–	–	COc1cc2nccc(Oc3ccc(NC(=O)c4nn(C5CCCC5)cc4OCC(F)(F)F)nn3)c2cc1OC [Compound 121]
< 100	29	< 50	–	–	COc1cc2nccc(Oc3ccc(NC(=O)c4nn(CC(C)C)cc4OCC(F)(F)F)cn3)c2cc1OC [Compound 103]
< 100	95	≥ 80	–	–	COc1cc2nccc(Oc3ccc(NC(=O)c4nn(C5CC5)cc4OCC4COC4)nc3)c2cc1OC [Compound 143]
< 100	60	50 to 80	–	–	COc1cc2nccc(Oc3ccc(NC(=O)c4nn(C5CCN(C)C5)cc4OCC(F)(F)F)cc3C)c2cc1OC (stereo not shown) [Compound 98]
< 100	94	≥ 80	–	–	COc1cc2nccc(Oc3ccc(NC(=O)c4nn(C5CC5)cc4NCC(F)(F)F)nc3)c2cc1OC [Compound 145]
< 100	95	≥ 80	–	–	COc1cc2nccc(Oc3ccc(NC(=O)c4nn(CCOC5CC5)cc4OCC(F)(F)F)nn3)c2cc1OC [Compound 120]
100 to 500	73	50 to 80	–	–	COc1cc2nccc(Oc3ccc(NC(=O)c4nn(C5CC5)cc4OCC4CNC4)nc3)c2cc1OC [Compound 144]
